Results: US20210403435A1, “HERBICIDAL COMPOUNDS” (SYNGENTA CROP PROTECTION AG, priority 2018, published 2021)

Columns and labels:
Assay in all cases: Post-emergence efficacy, glasshouse, evaluated after 13 days
Format in all cases: in vivo
Eleusine indica (ELEIN) = conditions: Eleusine indica, 312 h; post-emergence application, 500 g/Ha, evaluated after 13 days; read-out: Control of weed species ELEIN (100=total damage to plant; 0=no damage to plant)
How it was run: (§1)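 Scoring: 0 (no damage) to 100 (total damage), 13 days post-spray. Treatment applied post-emergence to plants grown 14 days in a controlled glasshouse at 24/16 °C and 65% humidity.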

[1] = tested on: Echinochloa crus-galli (ECHCG); conditions: Echinochloa crus-galli, 312 h; post-emergence application, 500 g/Ha, evaluated after 13 days; read-out: Control of weed species ECHCG (100=total damage to plant; 0=no damage to plant)
How it was run: as §1

[2] = tested on: Euphorbia heterophylla (EPHHL); conditions: Euphorbia heterophylla, 312 h; post-emergence application, 500 g/Ha, evaluated after 13 days; read-out: Control of weed species EPHHL (100=total damage to plant; 0=no damage to plant)
How it was run: as §1

[3] = tested on: Amaranthus palmeri (AMAPA); conditions: Amaranthus palmeri, 312 h; post-emergence application, 500 g/Ha, evaluated after 13 days; read-out: Control of weed species AMAPA (100=total damage to plant; 0=no damage to plant)
How it was run: as §1

[4] = tested on: Digitaria sanguinalis (DIGSA); conditions: Digitaria sanguinalis, 312 h; post-emergence application, 500 g/Ha, evaluated after 13 days; read-out: Control of weed species DIGSA (100=total damage to plant; 0=no damage to plant)
How it was run: as §1

Setaria faberi (SETFA) = conditions: Setaria faberi, 312 h; post-emergence application, 500 g/Ha, evaluated after 13 days; read-out: Control of weed species SETFA (100=total damage to plant; 0=no damage to plant)
How it was run: as §1

Lolium perenne (LOLPE) = conditions: Lolium perenne, 312 h; post-emergence application, 500 g/Ha, evaluated after 13 days; read-out: Control of weed species LOLPE (100=total damage to plant; 0=no damage to plant)
How it was run: as §1

[5] = tested on: Chenopodium album (CHEAL); conditions: Chenopodium album, 312 h; post-emergence application, 500 g/Ha, evaluated after 13 days; read-out: Control of weed species CHEAL (100=total damage to plant; 0=no damage to plant)
How it was run: as §1

[6] = tested on: Ipomoea hederacea (IPOHE); conditions: Ipomoea hederacea, 312 h; post-emergence application, 500 g/Ha, evaluated after 13 days; read-out: Control of weed species IPOHE (100=total damage to plant; 0=no damage to plant)
How it was run: as §1

Row | Compound | pest or weed control at 500 g/ha (Eleusine indica (ELEIN)) [%] | pest or weed control at 500 g/ha [1] [%] | pest or weed control at 500 g/ha [2] [%] | pest or weed control at 500 g/ha [3] [%] | pest or weed control at 500 g/ha [4] [%] | pest or weed control at 500 g/ha (Setaria faberi (SETFA)) [%] | pest or weed control at 500 g/ha (Lolium perenne (LOLPE)) [%] | pest or weed control at 500 g/ha [5] [%] | pest or weed control at 500 g/ha [6] [%]
1 | O=C(NC1CC1)c1cc[n+](CCS(=O)(=O)[O-])nc1 [Compound A30] | 80 | 40 | 70 | 100 | 70 | 70 | 70 | 100 | 70
2 | CC1CC1NC(=O)c1cc[n+](CCC(=O)O)nc1 (stereo not drawn) [Compound A101] | 70 | 90 | 50 | 100 | 100 | 90 | 80 | 100 | 50
3 | CCCCNC(=O)c1cc[n+](CCS(=O)(=O)[O-])nc1 [Compound A50] | 10 | 40 | 40 | 60 | 60 | 60 | 20 | 70 | 60
4 | CC[S+]([O-])CCNC(=O)c1cc[n+](CCC(=O)O)nc1 (stereo not drawn) [Compound A117] | 50 | 60 | 90 | 100 | 100 | 90 | 50 | 80 | 40
5 | CN(CC#N)C(=O)c1cc[n+](CCC(=O)O)nc1 [Compound A107] | 20 | 60 | 100 | 100 | 40 | 60 | 0 | 20 | 20
6 | O=C(O)CC[n+]1ccc(C(=O)N2CCCC2)cn1 [Compound A26] | 80 | 90 | 90 | 100 | 100 | 100 | 90 | 100 | 40
7 | CC(C)(C)NC(=O)c1cc[n+](CCS(=O)(=O)O)nc1 [Compound A13] | 70 | 60 | 70 | 100 | 80 | 80 | 60 | 100 | 60
8 | CCS(=O)(=O)CCNC(=O)c1cc[n+](CCC(=O)O)nc1 [Compound A118] | 50 | 40 | 90 | 100 | 100 | 90 | 50 | 100 | 40
9 | CC1(C)CC1NC(=O)c1cc[n+](CCC(=O)O)nc1 (stereo not drawn) [Compound A137] | 100 | 100 | 10 | 100 | 100 | 70 | 100 | 90 | 0
10 | O=C(NCC1CC1)c1cc[n+](CCS(=O)(=O)[O-])nc1 [Compound A25] | 90 | 70 | 80 | 100 | 80 | 80 | 60 | 90 | 60
11 | COCCNC(=O)c1cc[n+](CCC(=O)O)nc1 [Compound A40] | 100 | 90 | 100 | 100 | 100 | 100 | 70 | 90 | 60
12 | O=C(O)CC[n+]1ccc(C(=O)N2CCS(=O)(=O)CC2)cn1 [Compound A108] | 80 | 70 | 80 | 100 | 90 | 90 | 40 | 100 | 70
13 | C#CCCNC(=O)c1cc[n+](CCC(=O)O)nc1 [Compound A114] | 100 | 90 | 80 | 100 | 100 | 100 | 80 | 90 | 60
14 | CCNC(=O)c1cc[n+](CC(C)(C)C(=O)O)nc1 [Compound A88] | 100 | 90 | 90 | 100 | 80 | 100 | 60 | 100 | 90
15 | CC1(C)CC(NC(=O)c2cc[n+](CCC(=O)O)nc2)=NO1 [Compound A131] | 20 | 30 | 90 | 30 | 30 | 30 | 0 | 10 | 30
16 | CS(=O)(=O)CCNC(=O)c1cc[n+](CCNS(=O)(=O)[O-])nc1 [Compound A136] | 80 | 50 | 60 | 0 | 100 | 30 | 70 | 100 | 30
17 | O=C(O)CC[n+]1ccc(C(=O)NCC2CC2)cn1 [Compound A65] | 90 | 50 | 100 | 90 | 100 | 100 | 50 | 90 | 20
18 | O=C(O)CC[n+]1ccc(C(=O)Nc2ccon2)cn1 [Compound A41] | 60 | 50 | 90 | 80 | 70 | 90 | 10 | 90 | 20
